Series [1] concerns LI90 cells, a human hepatic stellate cell line. Kind of series: Inhibitory effect on collagen synthesis (in vitro). It is filed as cell-based. The note with it: in the presence of recombinant human TGF-β1, 3H-proline labelled collagen in supernatant. The procedure:
Inhibitory Effect on Collagen Synthesis (In Vitro)
LI90 cells, a human hepatic stellate cell line, were suspended in DMEM (Dulbecco's modified eagle medium) supplemented with 10% inactivated FBS (fetal bovine serum), seeded on a 12-well plate and cultured in a CO2 incubator (preset temperature: 37° C., preset CO2 concentration: 5%). After being cultured for 24 hours, the cells were washed with D-PBS (Dulbecco's phosphate buffered saline), placed in MEM (Eagle's minimum essential medium) supplemented with 0.1% inactivated FBS and then cultured in a CO2 incubator. After being cultured for 3 days, the cells were again washed with D-PBS, placed in MEM (Eagle's minimum essential medium) supplemented with 0.1% inactivated FBS and treated with or without a test compound in the presence of […] recombinant human TGF-β1 (transforming growth factor-β1) in a CO2 incubator for 16 hours. After the incubation, the cells were washed with D-PBS and the medium was replaced with MEM containing 0.25 mM ascorbate. A radio-labeled compound, ^3H-proline, was then added to the culture medium to radio-label the collagen proteins produced. After being cultured for 24 hours, the supernatant was collected and the collagen proteins were extracted from the supernatant as acid-soluble fractions. The amount of collagen produced was determined by measuring the radioactivity contained in the fractions. A concentration of test compound that produced 50% inhibition [IC50 value (nM)] on collagen synthesis was calculated by comparing the radioactivity count in a supernatant of test-compound-treated cells with that of untreated cells (control).

The subject of a further series is STAT3. Kind of series: Inhibitory effect on IL-6-induced STAT3 phosphorylation in human myeloma cells (in vitro). It is filed as cell-based. The note with it: U266B1 human myeloma cells, IL-6 1 ng/mL, pSTAT3 (Y705) by flow cytometry. As to the method: The inhibitory effect of the test compound on phosphorylation of STAT3 (signal transducer and activator of transcription-3) in human myeloma cells ([…]) induced by interleukin-6 (IL-6) was examined using the modified method of Tochizawa S. et al. (J Immunol Methods. 2006 Jun. 30; 313(1-2): 29-37). In the study, U266B1 cells were seeded in an RPMI 1640 medium containing 10% fetal bovine serum (FBS) in a 12-well plate and incubated at 37° C. for 2 hours in the presence of carbon dioxide. After incubation, IL-6 was added to yield the concentration of 1 ng/mL and the cells were incubated at 37° C. for 15 minutes in the presence of 5% carbon dioxide. After fixation of the cells by the addition of a buffer containing formaldehyde (Lyse/Fix Buffer, BD Biosciences) at room temperature for 10 minutes, the suspension was centrifuged to remove the supernatant and the cells were treated with ice-cold methanol for 10 minutes to improve the permeability of the cell membrane. The cells were centrifuged to remove methanol and washed twice with Dulbecco's phosphate buffered saline (D-PBS) containing 2% fetal bovine serum (FBS). A fluorescence-labeled anti-phosphorylated STAT3 (pSTAT3) antibody (Alexa Fluor 488-labeled anti-pSTAT3 (Y705) antibody, BD Biosciences) was added for staining in an ice bath for 30 minutes.
The cells were washed once with 2% FBS-containing D-PBS and suspended in 2% FBS-containing D-PBS, and the fluorescence intensity was determined using a flow cytometer (FACS Sort, BD Biosciences). The ratio of fluorescence intensity in the test group to the control group (T/C) was determined from the difference in the geometric mean of pSTAT3 fluorescence intensity between the test compound group of each concentration and the non-stimulated control group according to the following equation by defining the difference in the geometric mean of pSTAT3 fluorescence intensity between the IL-6 induced control and the non-stimulated control as 100%. T/C(%)=([…] of pSTAT3 fluorescence intensity in the cells treated with the test compound—geometric mean of pSTAT3 fluorescence intensity in non-stimulated control)/(geometric mean of fluorescence intensity of IL-6-induced pSTAT3 in the control−geometric mean of pSTAT3 fluorescence intensity in non-stimulated control)×100.
The concentration of the test compound inhibiting phosphorylation of STATS at 50% (IC50; concentration of the test compound corresponding to 50% T/C(%)) was determined using T/C(%) values at the respective concentrations and defined as the index for the inhibitory activity.
In general terms: Flow cytometry measures light scatter and fluorescence of single cells or particles in a stream.

Counter-ions that a name gives are not always drawn.

Consider `Cc1ccc(S(=O)(=O)N(C)c2ccc(Oc3ccc4cc(C(=O)N5CCN(Cc6ccc(OCC(F)(F)F)cc6)CC5)[nH]c4c3)nc2)cc1` [Example 41, 4,N-Dimethyl-N-[6-(2-{4-[4-(2,2,2-trifluoroethoxy)benzyl]-piperazine-1-carbonyl}-1H-indol-6-yloxy)pyridin-3-yl]benzene-sulfonamide], for which the melting point (as a rule, the temperature of the solid-liquid transition) fell in the range of 184 to 184.2 °C. The IC50 – broadly, the concentration that inhibits the measured activity by half – in series [1] is below 10 nM. As to `CC(C)Oc1ccc(CN2CCN(C(=O)c3cc4ccc(Oc5ncc(N(C)S(=O)(=O)c6ccc(Cl)c(Cl)c6)cn5)cc4n3C)CC2)cc1` [Example 43, 3,4-Dichloro-N-(2-{2-[4-(4-isopropoxybenzyl)piperazine-1-carbonyl]-1-methyl-1H-indol-6-yloxy}pyrimidin-5-yl)-N-methyl-benzenesulfonamide], the melting point lay in the range of 191.2 to 193 °C. For the same molecule, the IC50 in series [1] is below 10 nM. Turning to `COc1ccc(CN(C)C2CCN(C(=O)c3cc4cc(Oc5ccc(NC(=O)c6ccc(C(F)(F)F)cc6)cn5)ccc4n3C)CC2)cc1` [Example 232, N-[6-(2-{4-[(4-Methoxybenzyl)methylamino]piperidine-1-carbonyl}-1-methyl-1H-indol-5-yloxy)pyridin-3-yl]-4-trifluoromethyl-benzamide oxalate], the IC50 in series [1] is below 10 nM. For the molecule `Br.CN(C(=O)c1ccc(OC(F)(F)F)cc1)c1ccc(Oc2ccc3cc(C(=O)N4CCN(Cc5ccc(OC(CF)CF)cc5)CC4)n(C)c3c2)nc1` [Example 279, N-[6-(2-{4-[4-(2-Fluoro-1-fluoromethylethoxy)benzyl]piperazine-1-carbonyl}-1-methyl-1H-indol-6-yloxy)pyridin-3-yl]-N-methyl-4-tri-fluoromethoxybenzamide hydrobromide], the melting point lay within 227.5 to 230.3 °C. Besides, the 50% inhibitory concentration (IC50) in series [1] was below 10 nM. Regarding `Br.CN(C(=O)c1ccc(C(F)(F)F)cc1)c1ccc(Oc2ccc3cc(C(=O)N4CCN(Cc5ccc(C#N)cc5)CC4)n(C)c3c2)nc1` [Example 321, N-(6-{2-[4-(4-Cyanobenzyl)piperazine-1-carbonyl]-1-methyl-1H-indol-6-yloxy}pyridin-3-yl)-N-methyl-4-trifluoromethylbenzamide hydrobromide], the melting point lay within 267 to 270 °C. The IC50 with STAT3 is below 10 nM. In turn, `CCOc1ccc(CN2CCN(C(=O)c3cc4cc(Oc5ccc(N(C)C(=O)c6ccc(C(F)(F)F)cc6)cn5)ccc4n3C)CC2)cc1.O=C(O)/C=C\C(=O)O` [Example 342, N-(6-{2-[4-(4-Ethoxybenzyl)piperazine-1-carbonyl]-1-methyl-1H-indol-5-yloxy}pyridin-3-yl)-N-methyl-4-trifluoromethylbenzamide maleate] had a melting point of 131 to 135 °C. This molecule also came in with an IC50 with STAT3 below 10 nM.

With `COc1ccc(/C=C/CN2CCN(C(=O)c3cc4cc(Oc5ccc(NC(=O)c6ccc(C(F)(F)F)cc6)cn5)ccc4n3C)CC2)cc1.CS(=O)(=O)O` [Example 357, N-[6-(2-{4-[(E)-3-(4-Methoxyphenyl)allyl]piperazine-1-carbonyl}-1-methyl-1H-indol-5-yloxy)pyridin-3-yl]-4-trifluoromethyl-benzamide methanesulfonate], the melting point is 246 to 249 °C (dec.). Also, in series [1], the IC50 is below 10 nM. As for `COc1ccc(CN2CCN(C(=O)c3cc4cc(Oc5ncc(NC(=O)c6ccc(C(F)(F)F)cc6)cn5)ccc4n3C)CC2)cc1` [Example 380, N-(2-{2-[4-(4-Methoxybenzyl)piperazine-1-carbonyl]-1-methyl-1H-indol-5-yloxy}pyrimidin-5-yl)-4-trifluoromethylbenzamide], the melting point is 179 to 180 °C. Also, the IC50 in series [1] was below 10 nM.

In the case of `CC(C)CN1CCN(C(=O)c2cc3cc(Oc4ccc(NC(=O)c5ccc(C(F)(F)F)cc5)cn4)ccc3n2C)CC1` [Example 547, N-{6-[2-(4-isobutylpiperazine-1-carbonyl)-1-methyl-1H-indol-5-yloxy]pyridin-3-yl}-4-trifluoromethylbenzamide], in series [1], the half-maximal inhibitory concentration (IC50) is below 10 nM. The molecule `Br.Br.CN(C(=O)c1ccc(C(F)(F)F)cc1)c1ccc(Oc2ccc3c(c2)cc(C(=O)N2CCN(Cc4ccc(C#N)cn4)CC2)n3C)nc1` [Example 570, N-(6-{2-[4-(5-Cyanopyridin-2-ylmethyl)piperazine-1-carbonyl]-1-methyl-1H-indol-5-yloxy}pyridin-3-yl)-N-methyl-4-trifluoromethyl-benzamide dihydrobromide] yielded a melting point of 211 to 215 °C.

For `Br.Cn1c(C(=O)N2CCN(Cc3cnc(-c4ccc(C(F)(F)F)cc4)s3)CC2)cc2cc(Oc3ccc(NC(=O)c4ccc(C(F)(F)F)cc4)cn3)ccc21` [Example 572, N-[6-(1-Methyl-2-{4-[2-(4-trifluoromethylphenyl)thiazol-5-yl-methyl]piperazine-1-carbonyl}-1H-indol-5-yloxy)pyridin-3-yl]-4-trifluoromethylbenzamide hydrobromide], the melting point fell in the range of 218.9 to 220.8 °C. Moreover, the 50% inhibitory concentration (IC50) in series [1] is below 10 nM. Take `Br.CCN(C(=O)Nc1ccc(C(F)(F)F)cc1)c1ccc(Oc2ccc3c(c2)cc(C(=O)N2CCN(Cc4ccccc4)CC2)n3C)nc1` [Example 580, 1-{6-[2-(4-Benzylpiperazine-1-carbonyl)-1-methyl-1H-indol-5-yl-oxy]pyridin-3-yl}-1-ethyl-3-(4-trifluoromethylphenyl)urea hydrobromide]: the melting point lay within 224 to 230 °C. Consider `Br.CCN(C(=S)Nc1ccc(Cl)c(Cl)c1)c1ccc(Oc2ccc3c(c2)cc(C(=O)N2CCN(Cc4ccccc4)CC2)n3C)nc1` [Example 581, 1-{6-[2-(4-Benzylpiperazine-1-carbonyl)-1-methyl-1H-indol-5-yl-oxy]pyridin-3-yl}-3-(3,4-dichlorophenyl)-1-ethylthiourea hydrobromide], for which the melting point is 163 to 168 °C.

Turning to `Br.CCN(C(=O)Nc1ccc(Cl)c(Cl)c1)c1ccc(Oc2ccc3c(c2)cc(C(=O)N2CCN(Cc4ccc5c(c4)OCO5)CC2)n3C)nc1` [Example 583, 1-{6-[2-(4-Benzo[1,3]dioxol-5-ylmethylpiperazine-1-carbonyl)-1-methyl-1H-indol-5-yloxy]pyridin-3-yl}-3-(3,4-dichlorophenyl)-1-ethylurea hydrobromide], the melting point was in the range of 224 to 228 °C.

`COc1ccc(CN2CCN(C(=O)c3cc4cc(Oc5ccc(N(C)C(=O)c6ccc(C(F)(F)F)cc6O)cn5)ccc4n3C)CC2)cc1.O=C(O)C(=O)O` [Example 592, 2-Hydroxy-N-(6-{2-[4-(4-methoxybenzyl)piperazine-1-carbonyl]-1-methyl-1H-indol-5-yloxy}pyridin-3-yl)-N-methyl-4-trifluoromethyl-benzamide oxalate]: the melting point is 171 to 173 °C. Molecule `CN(C(=O)c1ccc(C(F)(F)F)cc1O)c1ccc(Oc2ccc3c(c2)cc(C(=O)N2CCN(Cc4ccc(OC(F)F)cc4)CC2)n3C)nc1.O=C(O)C(=O)O` [Example 594, N-(6-{2-[4-(4-Difluoromethoxybenzyl)piperazine-1-carbonyl]-1-methyl-1H-indol-5-yloxy}pyridin-3-yl)-2-hydroxy-N-methyl-4-tri-fluoromethylbenzamide oxalate] yielded a melting point of 155 to 160 °C.

Values taken from patent publication US8551999B2, “Heterocyclic compound and pharmaceutical composition thereof” (Otsuka Pharmaceutical Co., Ltd., priority 2007, dated 2013).
